As usually defined, the LD50 is the dose expected to kill half of the subjects tested.

Molecules are shown by their SMILES. Residues, ends and D or L forms follow the SMILES beside them. *: point of attachment. Cbz = O=C(OCc1ccccc1)*

The record followed here is patent US4670584A, “Pharmaceutical composition having an excellent absorption property” (Ajinomoto Company Incorporated, priority 1986, dated 1987).

A short description of series [1]: Oral insulin absorption in female ICR-CD-1 mice: percent decrease in blood glucose and degree of elevation of blood insulin. The following applies: vs control group. Type of series: in vivo, mouse (Female ICR-CD-1 mice). The method, then: The absorption promoter samples listed in Table 2 were dissolved or suspended in 0.5% CMC-0.05M tris-HCl buffers (pH: 7.8) and the solutions or suspensions were mixed with aqueous insulin solution. Female ICR-CD-1 mice 5 to 7 weeks old were orally administered predetermined amounts of the mixtures. A predetermined duration later, the percent decrease in blood glucose and the degree of elevation of blood insulin as compared with the control group were measured. The symbol "Z" in the structural formulas in the table represents a benzyloxycarbonyl group. The upper figures in the columns "effectiveness" represent the percent decrease in blood glucose and the lower parenthesized figures indicate the degree of elevation in blood insulin.

The nature of series [2]: Usefulness as absorption promoter. Conditions: statement in words, no data.
Series [3] can be described thus: Toxicity studies of phenylalanine derivatives, oral, in female CD-1(ICR) mice. The following applies: mouse, in vivo, suspended in 0.5% CMC. The source says:
Toxicity Studies of Phenylalanine Derivatives with Oral IN Potentiating Activity in Female CD-1(ICR) Mice are as follows:
Phenylalanine derivatives were suspended in 0.5% CMC.

Series [4] can be described thus: Degree of decrease in blood glucose after intraduodenal administration with insulin in rats. Type of series: in vivo, rat (Male SD rats). The following applies: male SD rats, 1.5 mg/10 body weight with insulin 1.25 U/10 g, mean. How it is done:
Each (Administration: 1.5 mg/10 body weight) of the absorption promoters, phenylalanine derivatives as previously listed in the table was dissolved or suspended in 0.01M phosphate buffer (pH 7.5) and the solution or suspension was mixed with aqueous insulin (Administation: 1.25 U/10 g body weight) solution. Male SD rats, 6 weeks old, were intraduodenally administrated with predetermined amounts of the mixtures after being incised abdominally. The incised wounds were sutured quickly. A predetermined duration later, the percent decreases in blood glucose were determined. In the experiment, four rats a group were used, and the experiment was repeated 2 to 5 times. The mean values of the thus obtained data were described in the table.

The mark [5] stands for this setting: sample 6.0 mg/10 g with insulin 2.5 U/10 g, 30 minutes.
[6] abbreviates: sample 6.0 mg/10 g with insulin 2.5 U/10 g, 60 minutes.

Take `O=C(NC(Cc1ccc(F)cc1)C(=O)N[C@@H](Cc1ccccc1)C(=O)O)OCc1ccccc1` (mixture of isomers) [Sample S-22, N-benzyloxycarbonyl-4-fluoro-DL-phenylalanyl-L-phenylalanine]: the “Decrease in Blood Glucose” value in series [1] (sample 3.0 mg/10 g with insulin 2.5 U/10 g, 30 minutes) is recorded as 63.1%.
Regarding `O=C(COc1ccc([N+](=O)[O-])cc1)NC(Cc1ccc([N+](=O)[O-])cc1)C(=O)O` (racemic) [Sample S-2, N-[(4-nitrophenoxy)acetyl]-4-nitro-DL-phenylalanine], the “Decrease in Blood Glucose” value in series [1] (setting [5]) came out at 23.2%.
Take `CC(=O)N[C@@H](Cc1ccccc1)C(=O)O` [N-acetylphenylalanine]: the “usefulness as absorption promoter” value in series [2] is on record as “not useful as absorption promoters”.
Turning to `N[C@@H](Cc1ccccc1)C(=O)O` [Phenylalanine], the “usefulness as absorption promoter” value in series [2] is “not useful as absorption promoters”.
`O=C(C=Cc1ccccc1)N[C@@H](Cc1ccccc1)C(=O)O` [Sample S-3, N-cinnamoyl-L-phenylalanine]: the LD50 in series [3] was over 2500 mg/kg.
For the compound `O=C(COc1ccccc1)N[C@@H](Cc1ccccc1)C(=O)O` [Sample S-5, N-phenoxyacetyl-L-phenylalanine], in series [3], the LD50 is over 4000 mg/kg.
With `O=C(N[C@@H](Cc1ccccc1)C(=O)N[C@@H](Cc1ccccc1)C(=O)O)OCc1ccccc1` [Sample S-7, N-benzyloxycarbonyl-L-phenylalanyl-L-phenylalanine] (Cbz-Phe-Phe-OH), in series [3], the LD50 is over 3000 mg/kg.
Regarding `O=C(CCCc1ccccc1)N[C@@H](Cc1ccccc1)C(=O)O` [Sample S-8, N-(4-phenylbutyroyl)-L-phenylalanine], the “Decrease in Blood Glucose” value in series [1] (setting [5]) is on record as 57.1%; in series [1] (setting [6]) it was 35.6%.
In the case of `O=C(N[C@@H](Cc1ccccc1)C(=O)N[C@@H](Cc1ccc(O)cc1)C(=O)O)OCc1ccccc1` [Sample S-10, N-benzyloxycarbonyl-L-phenylalanyl-L-tyrosine] (Cbz-Phe-Tyr-OH), the 50% lethal dose (LD50) in series [3] is over 3000 mg/kg.
As for `O=C(COc1cccc2ccccc12)N[C@@H](Cc1ccccc1)C(=O)O` [Sample S-11, N-[(1-naphthoxy)acetyl]-L-phenylalanine], the LD50 in series [3] is over 4000 mg/kg.
On to `O=C(COc1ccc2ccccc2c1)N[C@@H](Cc1ccccc1)C(=O)O` [Sample S-12, N-[(2-naphthoxy)acetyl]-L-phenylalanine], for which, in series [3], the LD50 was over 4000 mg/kg.
Turning to `O=C(COc1ccc(Cl)cc1)N[C@@H](Cc1ccccc1)C(=O)O` [Sample S-13, N-[(4-chlorophenoxy)acetyl]-L-phenylalanine], in series [3], the LD50 was over 3500 mg/kg.
As to `O=C(N[C@@H](Cc1ccccc1)C(=O)O)OCc1ccccc1` [Sample S-15, N-benzyloxycarbonyl-L-phenylalanine], the LD50 in series [3] was over 2750 mg/kg.
For `O=C(N[C@@H](Cc1ccc(O)cc1)C(=O)O)OCc1ccccc1` [Sample S-16, N-benzyloxycarbonyl-L-tyrosne], the “Decrease in Blood Glucose” value in series [1] (setting [6]) stood at 27.2%.
As to `COc1ccc(COC(=O)N[C@@H](Cc2ccccc2)C(=O)O)cc1` [Sample S-17, N-(4-methoxybenzyloxycarbonyl)-L-phenylalanine], the LD50 in series [3] was found to be 750 mg/kg.
With `O=C(N[C@H](Cc1ccccc1)C(=O)O)OCc1ccccc1` [Sample S-18, N-benzyloxycarbonyl-D-phenylalanine], in series [3], the LD50 is over 4000 mg/kg.
For the compound `O=C(C=Cc1ccc2ccccc2c1)N[C@@H](Cc1ccccc1)C(=O)O` [Sample S-37, N-(2-Naphthylacryloyl)-L-phenylalanine], the “Decrease in Blood Glucose” value in series [4] (30 minutes) is given as 55.3%; in series [4] (60 minutes), 40.2%.
As to `O=C(C=Cc1ccc2ccccc2c1)N[C@H](Cc1ccccc1)C(=O)O` [Sample S-38, N-(2-Naphthylacryloyl)-D-phenylalanine], the “Decrease in Blood Glucose” value in series [4] (30 minutes) is listed as 27.0%; in series [4] (60 minutes) it was 24.7%.
`CCc1ccc(C=CC(=O)N[C@@H](Cc2ccccc2)C(=O)O)cc1` [Sample S-39, N-(4-ethylcinnamoyl)-L-phenylalanine]: the “Decrease in Blood Glucose” value is recorded as 56.0% in series [4] (30 minutes) and 32.5% in series [4] (60 minutes).
Regarding `CCc1ccc(C=CC(=O)N[C@H](Cc2ccccc2)C(=O)O)cc1` [Sample S-40, N-(4-ethylcinnamoyl)-D-phenylalanine], the “Decrease in Blood Glucose” value in series [4] (30 minutes) is 33.9%; in series [4] (60 minutes), 28.1%.
`Cc1cccc(C=CC(=O)N[C@@H](Cc2ccccc2)C(=O)O)c1` [Sample S-41, N-(3-methylcinnamoyl)-L-phenylalanine]: the entries for the “Decrease in Blood Glucose” value in series [4] (30 minutes) and in series [4] (60 minutes) were 50.5% and 35.3%, respectively.
As to `Cc1cccc(C=CC(=O)N[C@H](Cc2ccccc2)C(=O)O)c1` [Sample S-42, N-(3-methylcinnamoyl)-D-phenylalanine], the “Decrease in Blood Glucose” value in series [4] (30 minutes) is 48.8%; in series [4] (60 minutes), 40.7%.
Turning to `O=C(C=Cc1cccc(Cl)c1)N[C@@H](Cc1ccccc1)C(=O)O` [Sample S-43, N-(3-chlorocinnamoyl)-L-phenylalanine], the “Decrease in Blood Glucose” value in series [4] (30 minutes) turned out to be 50.9%; in series [4] (60 minutes) it was 46.9%.
For the compound `O=C(C=Cc1cccc(Cl)c1)N[C@H](Cc1ccccc1)C(=O)O` [Sample S-44, N-(3-chlorocinnamoyl)-D-phenylalanine], the “Decrease in Blood Glucose” value amounted to 55.0% in series [4] (30 minutes) and 49.3% in series [4] (60 minutes).
In the same order, the values of `O=C(C=Cc1cccc2ccccc12)N[C@@H](Cc1ccccc1)C(=O)O` [Sample S-45, N-(1-naphthylacryloyl)-L-phenylalanine] are 41.2% and 35.4%.
For `O=C(C=Cc1cccc2ccccc12)N[C@H](Cc1ccccc1)C(=O)O` [Sample S-46, N-(1-naphthylacryloyl)-D-phenylalanine], the “Decrease in Blood Glucose” value in series [4] (30 minutes) is 41.6%; in series [4] (60 minutes), 28.8%.
Regarding `Cc1ccc(C=CC(=O)N[C@H](Cc2ccccc2)C(=O)O)cc1` [Sample S-47, N-(4-methylcinnamoyl)-D-phenylalanine], the “Decrease in Blood Glucose” value in series [4] (30 minutes) is 52.3%; in series [4] (60 minutes) it was 41.0%.
In the same order, the values of `O=C(N[C@H](Cc1ccccc1)C(=O)O)C(F)=Cc1ccccc1` [Sample S-48, N-(α-fluorocinnamoyl)-D-phenylalanine] are 73.7% and 72.9%.
Take `O=C(N[C@@H](Cc1ccccc1)C(=O)O)C(Cl)=Cc1ccccc1` [Sample S-49, N-(α-Chlorocinnamoyl)-L-phenylalanine 1/2C2 H5 OH]: the “Decrease in Blood Glucose” value in series [4] (30 minutes) was 63.2%; in series [4] (60 minutes), 49.1%.
For `O=C(N[C@H](Cc1ccccc1)C(=O)O)C(Cl)=Cc1ccccc1` [Sample S-50, N-(α-Chlorocinnamoyl)-D-phenylalanine 1/2C2 H5 OH], the “Decrease in Blood Glucose” value in series [4] (30 minutes) is given as 79.0%; in series [4] (60 minutes) it was 74.9%.
